Experimental data as given in BigSolDB 2.1.

Cc1ccc2cc(C)ccc2c1
Conditions	solubility (mole fraction)
in cyclohexane, 293.18 K	0.03
in cyclohexane, 298.86 K	0.0398
in cyclohexane, 305.57 K	0.0513
in cyclohexane, 312.3 K	0.0714
in cyclohexane, 318.76 K	0.096
in cyclohexane, 323.07 K	0.115
in cyclohexane, 325.79 K	0.134
in cyclohexane, 333.08 K	0.187
in cyclohexane, 339.97 K	0.253
in ethyl acetate, 287.56 K	0.0424
in ethyl acetate, 292.27 K	0.0494
in ethyl acetate, 298.27 K	0.0585
in ethyl acetate, 305.69 K	0.0775
in ethyl acetate, 311.52 K	0.0957
in ethyl acetate, 318.89 K	0.123
in ethyl acetate, 325.2 K	0.158
in ethyl acetate, 332.01 K	0.2
in ethyl acetate, 338.58 K	0.256
in isooctane, 288.36 K	0.0234
in isooctane, 293.19 K	0.0294
in isooctane, 298.62 K	0.0344
in isooctane, 306.77 K	0.0487
in isooctane, 315.41 K	0.0725
in isooctane, 322.03 K	0.0905
in isooctane, 327.1 K	0.113
in isooctane, 334.57 K	0.149
in isooctane, 341.2 K	0.197
in isopropanol, 286.65 K	0.0054
in isopropanol, 294.55 K	0.0072
in isopropanol, 301.45 K	0.0098
in isopropanol, 309.65 K	0.0136
in isopropanol, 315.75 K	0.0174
in isopropanol, 323.22 K	0.023
in isopropanol, 330.55 K	0.0297
in isopropanol, 335.95 K	0.0371
in isopropanol, 341.65 K	0.0517
in n-heptane, 288.85 K	0.0289
in n-heptane, 293.58 K	0.0359
in n-heptane, 298.72 K	0.0433
in n-heptane, 304.56 K	0.0529
in n-heptane, 311.77 K	0.0632
in n-heptane, 317.8 K	0.0775
in n-heptane, 324.79 K	0.0979
in n-heptane, 332.39 K	0.132
in n-heptane, 339.42 K	0.17
in n-propyl acetate, 286.65 K	0.0485
in n-propyl acetate, 293.5 K	0.0638
in n-propyl acetate, 300.85 K	0.0815
in n-propyl acetate, 307.41 K	0.103
in n-propyl acetate, 313.85 K	0.127
in n-propyl acetate, 320.65 K	0.159
in n-propyl acetate, 328.22 K	0.206
in n-propyl acetate, 333.46 K	0.245
in n-propyl acetate, 338.17 K	0.289
